Assay results reported in EP0225522A1, “Imidazopyridazine alkene carboxamides, process for their preparation, intermediate products and their preparation” (BAYER AG, priority 1985, dated 1987).

Tested on: männliche Ratten
Assay: Diuretic and saluretic effect in fasted male rats: urine and electrolyte excretion over 6 hours in metabolism cages
Type: in vivo, Ratten (SPF
Details: 100 mg/kg p.o. in 10 ml/kg Tylose-Suspension, excretion over 6 Stunden, fasted male Wistar rats; for K^+ / Na^+: flame photometer
Description: Die pharmakologische Wirkung der erfindungsgemäßen Verbindungen wurden nach folgender Testmethode ermittelt: Nüchterne männliche Ratten im Gewicht von 150 bis 250 g (SPF, Wistar, je n=4 Paare) werden mit 10 ml/kg p.o. Tylose-Suspension (0,5 X) als Kontrollen bzw. mit 100 mg/kg p.o. Prüfsubstanz in 10 ml/kg p.o. Tylose-Suspension mittels Schlundsonde behandelt. Die Tiere werden in Stoffwechselkäfige gebracht und die Harn- und Elektrolytauscheidung über 6 Stunden bestimmt (Na^4 und K^4 Bestimmung: IL-Flammenphotometer).

With `CN1CCN(c2ccc3nc(-c4ccccc4)c(/C=C/C(=O)N4CCCCC4)n3n2)CC1` [Beispiel 33] the Harn was 26 mL/kg, the “K^+” value was 450 µmol/kg and the “Na^+” value was 3400 µmol/kg.
`CCN(CC)C(=O)/C=C/c1c(-c2ccccc2)nc2ccc(N3CCN(C)CC3)nn12` [Beispiel 35] was tested, and the Harn was 21 mL/kg, the “K^+” value was 800 µmol/kg and the “Na^+” value was 3100 µmol/kg.
For `Cc1ccc2nc(-c3ccccc3)c(/C=C/C(=O)N3CCCCC3)n2n1` [Beispiel 14], the Harn was 25 mL/kg, the “K^+” value was 900 µmol/kg and the “Na^+” value was 2900 µmol/kg.
